{
  "source": "paper PMC8704611",
  "about": "“Synthesis, Molecular Docking Analysis, and Biological Evaluations of Saccharide-Modified Sulfonamides as Carbonic Anhydrase IX Inhibitors” (International Journal of Molecular Sciences, 2021)",
  "key": {"HT-29 cells [1]": {"tested_on": "HT-29 cells", "assay": "Measurement of extracellular pH", "assay_type": "cell-based", "conditions": "for Extracellular pH, Hypoxic condition: hypoxia, control 6.81; for Extracellular pH, Normoxic condition: normoxia, control 7.02", "description": "The main role of CA IX and XII in tumour development is to regulate the pH of the tumour growth microenvironment so that tumour cells are in a weakly acidic environment. Such an acidic environment is conducive to the growth of tumour cells and protects tumour cells from being killed by chemotherapeutics. We evaluated the effects of 0.1 mM and 1.0 mM of compounds 16a and 16b on the pH of the tumour cell growth environment under normoxia or hypoxia (detailed data is provided in the Tables S5 and S6 of supplementary information).\n(§1) The changes in extracellular pH were evaluated according to previously published procedures. Cancer cells were grown in the medium containing 10% FBS and incubated in 6-well plates for 12 h. After removing the medium, we added fresh medium to the 6-well plates and incubated them for 48 h under hypoxia or normoxia. Then, we measured the pH of the culture medium immediately after collection. The tested compounds were dissolved in DMSO and diluted to the desired concentration. After the addition of tested compounds, the same procedure was carried out."}, "MDA-MB-231 cells [2]": {"tested_on": "MDA-MB-231 cells", "assay": "CCK-8 cell viability assay", "assay_type": "cell-based", "conditions": "Homo sapiens, MDA-MB-231, 400 μM, 48 h", "description": "(§2) The CCK-8 assay was used to evaluate the cytotoxicity of compounds 16a, 16b, and 16e on the breast cancer cell line MDA-MB-231 and colon cancer cell line HT-29. MDA-MB-231 and HT-29 are tumour cells that have been reported to express CA IX. We cultivated them under normoxia and hypoxia respectively and then evaluated the effects of the compounds on tumour cell viability at different concentrations.\n(§3) Cell viability was tested by CCK-8 assay. The MDA-MB-231, HT-29 and MG-63 cell lines were provided by KeyGEN BioTECH Ltd. (Nanjing, Jiangsu, China). The cancer cell suspension was prepared to 5.0 × 10^4 cells/mL. After adding 100 μL cell suspension into each well of 96-well plates, the 96-well plates were placed in the incubator at 37 °C and 5% CO2 for 24 h. The compounds were diluted to the required concentration with the medium, and 100 μL of the corresponding medium was added to each well. Meanwhile, the negative control group was set up. The plates were incubated in normoxia or hypoxia for 48 h. The CCK-8 solution (10 μL) was added to each well, and the cells were incubated for another 3 h. After removing the bubbles in each well, cell viability was assessed by measuring the absorbance at 450 nm wavelength using a microplate reader. The hypoxia atmosphere consisted of 0.5% O2, 5% CO2, and 94.5% N2. The normoxia atmosphere was air."}, "HT-29 cells [3]": {"tested_on": "HT-29 cells", "assay": "CCK-8 cell viability assay", "assay_type": "cell-based", "conditions": "for viability at 400 µM: Homo sapiens, HT-29, 400 μM, 48 h", "description": "as §2, §3"}, "MDA-MB-231 cells [4]": {"tested_on": "MDA-MB-231 cells", "assay": "Cell migration (scratch wound) assay", "assay_type": "cell-based", "conditions": "MDA-MB-231, 400 μM, hypoxia", "description": "Tumour cell migration is one of the basic biological characteristics of tumour cells. […] MDA-MB-231 was selected as the experimental cell line to explore the ability of 16a to reduce tumour cells migration under hypoxia.\nMDA-MB-231 cells (1 × 10^5 cells/well) were cultured in 6-well plates and wounded by scratching with a pipette tip. The wounded cell monolayers were washed three times with PBS and incubated with serum-free medium."}, "MDA-MB-231 cells [5]": {"tested_on": "MDA-MB-231 cells", "assay": "Measurement of extracellular pH", "assay_type": "cell-based", "conditions": "for Extracellular pH, Hypoxic condition: hypoxia, control 6.84; for Extracellular pH, Normoxic condition: normoxia, control 7.06", "description": "The main role of CA IX and XII in tumour development is to regulate the pH of the tumour growth microenvironment so that tumour cells are in a weakly acidic environment. Such an acidic environment is conducive to the growth of tumour cells and protects tumour cells from being killed by chemotherapeutics.\nas §1"}, "hCA IX": {"molecular_target": "hCA IX (Homo sapiens, UniProt Q16790)", "assay": "CA inhibition assay (hydrolysis of 4-nitrophenylacetate)", "assay_type": "biochemical", "conditions": "4-NPA hydrolysis; three independent assays, relative errors 5–10%", "description": "(§4) Carbonic anhydrase has the ability to catalyse the hydrolysis of 4-NPA. […] More detailed operations and specific parameters are as reported earlier."}, "hCA XII": {"molecular_target": "hCA XII (Homo sapiens, UniProt O43570)", "sequence (O43570 25-354)": "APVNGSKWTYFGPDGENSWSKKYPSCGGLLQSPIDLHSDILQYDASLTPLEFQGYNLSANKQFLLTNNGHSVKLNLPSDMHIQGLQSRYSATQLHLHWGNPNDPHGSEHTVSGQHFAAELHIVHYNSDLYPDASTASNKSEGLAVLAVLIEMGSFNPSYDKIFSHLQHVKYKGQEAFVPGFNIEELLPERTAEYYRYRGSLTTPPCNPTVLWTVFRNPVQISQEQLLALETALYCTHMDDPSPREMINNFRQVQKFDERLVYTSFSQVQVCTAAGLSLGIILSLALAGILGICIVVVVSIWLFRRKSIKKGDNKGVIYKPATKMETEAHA", "assay": "CA inhibition assay (hydrolysis of 4-nitrophenylacetate)", "assay_type": "biochemical", "conditions": "4-NPA hydrolysis; three independent assays, relative errors 5–10%", "description": "as §4"}, "hCA II": {"molecular_target": "hCA II (Homo sapiens, UniProt P00918)", "assay": "CA inhibition assay (hydrolysis of 4-nitrophenylacetate)", "assay_type": "biochemical", "conditions": "4-NPA hydrolysis; three independent assays, relative errors 5–10%", "description": "as §4"}, "[6]": {"conditions": "hypoxia, read-out: cell viability, Hypoxic condition (%)"}, "[7]": {"conditions": "normoxia, read-out: cell viability, Normoxic condition (%)"}},
  "note": "Read-outs that look alike come from different tables or passages of the source.",
  "data": [
    {"smiles": "NS(=O)(=O)c1ccc(-n2cc(-c3ccc(NC(=O)CCC(=O)N[C@@H]4O[C@H](CO)[C@@H](O)[C@H](O)[C@H]4O)cc3)nn2)cc1", "note": "[Compound 16a, N^1-(4-(1-(4-sulfamoylphenyl)-1H-1,2,3-triazol-4-yl)phenyl)-N^4-((2R,3R,4S,5S,6R)-3,4,5-trihydroxy-6-(hydroxymethyl)tetrahydro-2H-pyran-2-yl)succinamide]", "values": [
      {"measurement": "effect on extracellular pH", "setting": "HT-29 cells [1]; HT-29, 0.1 mM and 1.0 mM", "value": "improve the extracellular pH"},
      {"measurement": "Extracellular pH, Hypoxic condition", "setting": "HT-29 cells [1]; HT-29, 0.1 mM", "value": 6.88},
      {"measurement": "Extracellular pH, Normoxic condition", "setting": "HT-29 cells [1]; HT-29, 0.1 mM", "value": 6.97},
      {"measurement": "Extracellular pH, Hypoxic condition", "setting": "HT-29 cells [1]; HT-29, 1.0 mM", "value": 7.26},
      {"measurement": "Extracellular pH, Normoxic condition", "setting": "HT-29 cells [1]; HT-29, 1.0 mM", "value": 7.13},
      {"measurement": "viability at 400 µM", "setting": "MDA-MB-231 cells [2]; [6]", "value": "85.1 ± 1.68", "unit": "%"},
      {"measurement": "viability at 400 µM", "setting": "MDA-MB-231 cells [2]; [7]", "value": "88.9 ± 1.71", "unit": "%"},
      {"measurement": "decrease in cell viability", "setting": "HT-29 cells [3]; HT-29, highest concentration of 400 μM", "value": 20, "unit": "%"},
      {"measurement": "viability at 400 µM", "setting": "HT-29 cells [3]; [6]", "value": "82.6 ± 1.92", "unit": "%"},
      {"measurement": "viability at 400 µM", "setting": "HT-29 cells [3]; [7]", "value": "83.3 ± 2.09", "unit": "%"},
      {"measurement": "effect on tumour cell migration", "setting": "MDA-MB-231 cells [4]; at 72 h", "value": "could hardly be detected"},
      {"measurement": "effect on tumour cell migration", "setting": "MDA-MB-231 cells [4]; first 24 h, vs blank group", "value": "slight inhibitory effect"},
      {"measurement": "effect on extracellular pH", "setting": "MDA-MB-231 cells [5]; MDA-MB-231, 0.1 mM and 1.0 mM", "value": "improve the extracellular pH"},
      {"measurement": "Extracellular pH, Hypoxic condition", "setting": "MDA-MB-231 cells [5]; MDA-MB-231, 0.1 mM", "value": 6.9},
      {"measurement": "Extracellular pH, Normoxic condition", "setting": "MDA-MB-231 cells [5]; MDA-MB-231, 0.1 mM", "value": 7.04},
      {"measurement": "Extracellular pH, Hypoxic condition", "setting": "MDA-MB-231 cells [5]; MDA-MB-231, 1.0 mM", "value": 7.31},
      {"measurement": "Extracellular pH, Normoxic condition", "setting": "MDA-MB-231 cells [5]; MDA-MB-231, 1.0 mM", "value": 7.21},
      {"measurement": "IC50", "setting": "hCA IX", "value": 51.6, "unit": "nM"},
      {"measurement": "IC50", "setting": "hCA XII", "value": 135, "unit": "nM"},
      {"measurement": "IC50", "setting": "hCA II", "value": 27.7, "unit": "nM"}
    ]}
  ]
}
